We go through 15 compounds from patent publication US20190016689A1, “NOVEL FLUORINATED QUINAZOLINE DERIVATIVES AS EGFR INHIBITORS” (TRILLIUM THERAPEUTICS INC., priority 2016, published 2019).

pIC50: −log10 of the molar value.

The target in one data set is EGFR (T790M) (Homo sapiens, UniProt P00533, T790M, form not given). The experiment in a line: Kinase HotSpot profiling (33P-ATP filter binding). Format: biochemical.
Chain of EGFR (T790M) (P00533 whole entry T790M, form open): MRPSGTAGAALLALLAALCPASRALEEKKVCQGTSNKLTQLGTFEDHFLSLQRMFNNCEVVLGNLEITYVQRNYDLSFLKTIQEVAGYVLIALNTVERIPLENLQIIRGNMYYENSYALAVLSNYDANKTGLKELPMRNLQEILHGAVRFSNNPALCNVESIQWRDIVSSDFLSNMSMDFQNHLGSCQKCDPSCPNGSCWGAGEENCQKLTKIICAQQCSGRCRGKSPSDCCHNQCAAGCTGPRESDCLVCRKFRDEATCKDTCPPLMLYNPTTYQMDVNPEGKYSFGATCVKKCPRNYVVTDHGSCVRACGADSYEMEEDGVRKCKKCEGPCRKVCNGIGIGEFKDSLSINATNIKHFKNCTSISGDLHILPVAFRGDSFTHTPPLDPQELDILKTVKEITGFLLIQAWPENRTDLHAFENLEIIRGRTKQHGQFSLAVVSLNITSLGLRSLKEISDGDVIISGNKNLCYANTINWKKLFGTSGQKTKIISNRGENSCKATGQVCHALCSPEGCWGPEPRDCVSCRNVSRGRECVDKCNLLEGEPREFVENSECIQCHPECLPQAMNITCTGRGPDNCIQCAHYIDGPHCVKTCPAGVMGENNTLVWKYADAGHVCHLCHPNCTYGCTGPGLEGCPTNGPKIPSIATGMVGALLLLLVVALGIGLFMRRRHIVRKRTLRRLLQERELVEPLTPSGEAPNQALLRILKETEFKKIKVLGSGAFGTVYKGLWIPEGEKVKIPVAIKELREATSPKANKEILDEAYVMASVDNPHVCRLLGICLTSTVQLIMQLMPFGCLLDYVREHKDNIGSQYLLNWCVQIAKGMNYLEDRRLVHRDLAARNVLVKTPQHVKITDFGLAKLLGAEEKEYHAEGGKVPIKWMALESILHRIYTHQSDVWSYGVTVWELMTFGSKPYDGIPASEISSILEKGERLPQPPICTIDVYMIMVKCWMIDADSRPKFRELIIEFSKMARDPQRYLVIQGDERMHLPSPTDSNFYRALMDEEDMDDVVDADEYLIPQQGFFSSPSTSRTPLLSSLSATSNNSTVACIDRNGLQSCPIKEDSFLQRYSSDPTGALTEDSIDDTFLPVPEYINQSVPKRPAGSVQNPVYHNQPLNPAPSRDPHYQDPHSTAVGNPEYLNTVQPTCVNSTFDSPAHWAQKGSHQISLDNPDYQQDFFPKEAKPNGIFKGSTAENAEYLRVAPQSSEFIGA
Details: not given
The method, then: Base Reaction buffer; 20 mM Hepes (pH 7.5), 10 mM MgCl2, 1 mM EGTA, 0.02% Brij35, 0.02 mg/ml BSA, 0.1 mM Na3VO4, 2 mM DTT, 1% DMSO • Required cofactors are added individually to each kinase reaction
1. The indicated substrate was prepared in fresh Base Reaction Buffer.
2. Any required cofactors were added to the substrate solution above.
3. Indicated kinase was added into the substrate solution and gently mixed.
4. Compounds in DMSO were added into the kinase reaction mixture by Acoustic technology (Echo550; nanoliter range) and incubated for 20 minutes at room temperature.
5. 33P-ATP (specific activity 10 μCi/μl) was added into the reaction mixture to initiate the reaction.
6. The kinase reaction was incubated for 2 hours at room temperature
7. Reactions were spotted onto P81 ion exchange paper.
8. Kinase activity was detected by filter-binding method.
IC50 (nM) concentrations are illustrated in Table 5. This assay confirms that compounds of the application are effective inhibitors of the target EGFR receptors.
Usually pIC50 stands for −log10 of the IC50, conventionally taken in molar units. With `COc1cc2ncnc(Nc3ccc(Cl)c(Cl)c3F)c2cc1NC(=O)/C=C/CN1CCC(OC(F)F)CC1` [Example I-17, (E)-N-[4-(3,4-dichloro-2-fluoro-anilino)-7-methoxy-quinazolin-6-yl]-4-[4-(difluoromethoxy)-1-piperidyl]but-2-enamide], the pIC50 was 6.09. Still for that read-out and setting: to `CN(C)C/C=C/C(=O)Nc1cc2c(Nc3ccc(Cl)c(Cl)c3F)ncnc2cc1OCCOC(F)F` [Example I-2, (E)-N-[4-(3,4-dichloro-2-fluoro-anilino)-7-[2-(difluoromethoxy)ethoxy]quinazolin-6-yl]-4-(dimethylamino)but-2-enamide] belongs 7.79; to `C#Cc1cccc(Nc2ncnc3cc(OCCOC(F)F)c(NC(=O)/C=C/CN(C)C)cc23)c1F` [Example I-25, (E)-N-[7-[2-(difluoromethoxy)ethoxy]-4-(3-ethynyl-2-fluoro-anilino)quinazolin-6-yl]-4-(dimethylamino)but-2-enamide], 9.17. Still for that read-out and setting: to `CN(C)C/C=C/C(=O)Nc1cc2c(Nc3cccc(Cl)c3F)ncnc2cc1OCCOC(F)F` [Example I-5, (E)-N-[4-(3-chloro-2-fluoro-anilino)-7-[2-(difluoromethoxy)ethoxy]quinazolin-6-yl]-4-(dimethylamino)but-2-enamide] belongs 9.15; to `O=C(/C=C/CN1CCOCC1)Nc1cc2c(Nc3ccc(Cl)c(Cl)c3F)ncnc2cc1OCCOC(F)F` [Example I-3, (E)-N-[4-(3,4-dichloro-2-fluoro-anilino)-7-[2-(difluoromethoxy)ethoxy]quinazolin-6-yl]-4-morpholino-but-2-enamide], 8.25; to `O=C(/C=C/CN1CC(F)(F)C1)Nc1cc2c(Nc3ccc(F)c(Cl)c3F)ncnc2cc1OCCOC(F)F` [Example I-16, (E)-N-[4-(3-chloro-2,4-difluoro-anilino)-7-[2-(difluoromethoxy)ethoxy]quinazolin-6-yl]-4-(3,3-difluoroazetidin-1-yl)but-2-enamide], 7.86. On the same count and under the same terms, to `O=C(/C=C/CN1CCCCC1)Nc1cc2c(Nc3ccc(F)c(Cl)c3F)ncnc2cc1OCCOC(F)F` [Example I-10, (E)-N-[4-(3-chloro-2,4-difluoro-anilino)-7-[2-(difluoromethoxy)ethoxy]quinazolin-6-yl]-4-(1-piperidyl)but-2-enamide] belongs 9.81. In turn, `O=C(/C=C/CN1CCC(OC(F)F)CC1)Nc1cc2c(Nc3cccc(Cl)c3F)ncnc2cc1OCCOC(F)F` [Example I-8, (E)-N-[4-(3-chloro-2-fluoro-anilino)-7-[2-(difluoromethoxy)-ethoxy]quinazolin-6-yl]-4-[4-(difluoromethoxy)-1-piperidyl]but-2-enamide] had a pIC50 of 7.10.

On to `O=C(/C=C/CN1CCC(OC(F)F)CC1)Nc1cc2c(Nc3ccc(F)c(Cl)c3)ncnc2cc1OCCOC(F)F` [Example I-22, (E)-N-[4-(3-chloro-4-fluoro-anilino)-7-[2-(difluoromethoxy)ethoxy]quinazolin-6-yl]-4-[4-(difluoromethoxy)-1-piperidyl]but-2-enamide], for which the pIC50 was 7.88. Same read-out and setting: to `COc1cc2ncnc(Nc3ccc(F)c(Cl)c3)c2cc1NC(=O)/C=C/CN1CCC(OC(F)F)CC1` [Example I-18, (E)-N-[4-(3-chloro-4-fluoro-anilino)-7-methoxy-quinazolin-6-yl]-4-[4-(difluoromethoxy)-1-piperidyl]but-2-enamide] belongs 7.20. Still for that read-out and setting: to `CN(C)C/C=C/C(=O)Nc1cc2c(Nc3ccc(F)c(Cl)c3F)ncnc2cc1OCCOC(F)F` [Example I-9, (E)-N-[4-(3-chloro-2,4-difluoro-anilino)-7-[2-(difluoromethoxy)-ethoxy]quinazolin-6-yl]-4-(dimethylamino)but-2-enamide] belongs 10.22; to `O=C(/C=C/CN1CCOCC1)Nc1cc2c(Nc3cccc(Cl)c3F)ncnc2cc1OCCOC(F)F` [Example I-7, (E)-N-[4-(3-chloro-2-fluoro-anilino)-7-[2-(difluoromethoxy)-ethoxy]quinazolin-6-yl]-4-morpholino-but-2-enamide], 7.98.

Test system in another data set: not listed separately
The experiment in a line: Evaluation of P-gp efflux: Caco-2 permeability. As to conditions: human, Caco-2, pH 7.4. How it is done:
(§1) At this stage of growth, cell monolayers were fully polarized and differentiated.
(§2) The permeability assay buffer was Hanks Balanced Salt Solution containing 10 mM HEPES and 15 mM glucose at a pH of 7.4. The dosing buffer contained 5 μM metoprolol (positive control), 5 μM atenolol (negative control) and 100 μM lucifer yellow. The buffer in the receiver chamber also contained 1% bovine serum albumin (BSA). The dosing solution concentration was 5 μM in the assay buffer. Digoxin (20 μM) was used as Pgp substrate control.
(§3) The known Pgp inhibitor was co-dosed at 50 μM with compound at 5 μM.
(§4) Cell monolayers were dosed on the apical side (A-to-B) or basolateral side (B-to-A) and incubated at 37° C. in a shaker (65 rpm). Samples were taken from the donor and receiver chambers at 120 minutes. Each determination was performed in duplicate.
(§5) Narrow-window mass extraction LC/MS analysis was performed for all samples from this study using a Waters Xevo quadrupole time-of-flight (QTof) mass spectrometer, to determine relative peak areas of parent compound. The percent of transported drug was calculated based on these peak areas, relative to the initial, dosing concentration.
For orientation: Passage across Caco-2 layers is used to estimate intestinal permeability.
Broadly, the Papp A→B is how fast a substance crosses the layer from the apical side. Higher therefore signals ready permeation. As a reminder, the Papp B→A is the apparent permeability from the basolateral to the apical side of a cell layer. The compound `COc1cc2nc(N3CCN(C(=O)c4ccco4)CC3)nc(N)c2cc1OC` [Prazosin] showed a Papp A→B at 120 min, 5 µM of 21.7 ×10⁻⁶ cm/s and a Papp B→A at 120 min, 5 µM of 34.7 ×10⁻⁶ cm/s. With `CC(C)NCC(O)COc1cccc2ccccc12` (stereo not drawn) [Propranolol], the Papp A→B at 120 min, 5 µM is 21.1 ×10⁻⁶ cm/s and the Papp B→A at 120 min, 5 µM was 15.8 ×10⁻⁶ cm/s. Compound `C[C@H]1O[C@@H](O[C@H]2[C@@H](O)C[C@H](O[C@H]3[C@@H](O)C[C@H](O[C@H]4CC[C@@]5(C)[C@H](CC[C@@H]6[C@@H]5C[C@@H](O)[C@]5(C)[C@@H](C7=CC(=O)OC7)CC[C@]65O)C4)O[C@@H]3C)O[C@@H]2C)C[C@H](O)[C@@H]1O` [Digoxin] yielded a Papp A→B at 120 min, 5 µM of 0.75 ×10⁻⁶ cm/s and a Papp B→A at 120 min, 5 µM of 22.7 ×10⁻⁶ cm/s.

A further data set concerns P-gp. Nature of the data set: Evaluation of P-gp efflux: Caco-2 permeability. As to conditions: human, Caco-2, pH 7.4. The method, then: as §1, §2, §3, §4, §5
In general, efflux ratio refers to a quotient of directional permeabilities that is used to spot active efflux. As to `COc1cc2nc(N3CCN(C(=O)c4ccco4)CC3)nc(N)c2cc1OC` [Prazosin], the efflux ratio at 120 min, 5 µM worked out at 1.59.

For `CC(C)NCC(O)COc1cccc2ccccc12` (stereo not drawn) [Propranolol], the efflux ratio at 120 min, 5 µM came to 0.75. As to `C[C@H]1O[C@@H](O[C@H]2[C@@H](O)C[C@H](O[C@H]3[C@@H](O)C[C@H](O[C@H]4CC[C@@]5(C)[C@H](CC[C@@H]6[C@@H]5C[C@@H](O)[C@]5(C)[C@@H](C7=CC(=O)OC7)CC[C@]65O)C4)O[C@@H]3C)O[C@@H]2C)C[C@H](O)[C@@H]1O` [Digoxin], the efflux ratio at 120 min, 5 µM was found to be 30.4.
